In PubChem BioAssay AID248 (DTP/NCI, 2004):
Toxic doses and inconclusive results are not listed. No stated cut-off is given here; in the data, active means T/C of 150% or more; inactive means T/C below 125%. Numbered stars: 1 amine (or outer) side, 2 acyl side, 3 side chain; on linkers, the order of the positions; unused ones are H or OH. Bridge positions count the residues as written; N and C are the ends. Square brackets hold non-standard residues; d marks the D form. Peptide text beside a SMILES is read from it. I, II: the chains in the order shown. Actinocin(9to1) = Cc1c2oc3c(C)ccc(C(=O)[*:1])c3nc-2c(C(=O)[*:2])c(N)c1=O; NMeV = CN[CH](C(=O)O)C(C)C; Pip = O=C(O)[CH]1CCCCN1; Sar = CNCC(=O)O

Tested on: L1210 leukemia ip in BDF1 mice, survival T/C
Experiment: NCI In Vivo Anticancer Drug Screen. Data for tumor model L1210 Leukemia (intraperitoneal) in B6D2F1 (BDF1) mice
Settings: endpoint: mean survival time, higher = longer survival
Outline: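 Tumor cells were implanted, animals were treated, and survival was followed. The result divides the treated measurement by the vehicle-control measurement.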

[1] = dose: 200.0 mg/kg/injection, schedule: Q01DX001 (ip), vehicle: Klucel (hydroxypropylcellulose) (HPC)
[2] = dose: 400.0 mg/kg/injection, schedule: Q01DX001 (ip), vehicle: Klucel (hydroxypropylcellulose) (HPC)
[3] = dose: 100.0 mg/kg/injection, schedule: Q01DX009 (ip), vehicle: saline
[4] = dose: 200.0 mg/kg/injection, schedule: Q01DX009 (ip), vehicle: saline
[5] = dose: 400.0 mg/kg/injection, schedule: Q01DX009 (ip), vehicle: saline

Measured: T/C

Nc1cc2oc3ccccc3c2c2cccnc12
inactive: dose: 100.0 mg/kg/injection, schedule: Q01DX001 (ip), vehicle: Klucel (hydroxypropylcellulose) (HPC) 103 % of control | dose: 100.0 mg/kg/injection, schedule: Q04DX003 (ip), vehicle: Klucel (hydroxypropylcellulose) (HPC) 106 % of control | [1] 100 % of control | dose: 200.0 mg/kg/injection, schedule: Q04DX003 (ip), vehicle: Klucel (hydroxypropylcellulose) (HPC) 103 % of control | [2] 91 % of control | dose: 400.0 mg/kg/injection, schedule: Q04DX003 (ip), vehicle: Klucel (hydroxypropylcellulose) (HPC) 103 % of control

OC1COC(O)C(O)C1O (stereo not drawn)
inactive: [3] 98 % of control | dose: 100.0 mg/kg/injection, schedule: Q04DX003 (ip), vehicle: saline 104 % of control | [4] 103 % of control | dose: 200.0 mg/kg/injection, schedule: Q04DX003 (ip), vehicle: saline 111 % of control | dose: 250.0 mg/kg/injection, schedule: Q04DX003 (ip), vehicle: saline 93 % of control | [5] 104 % of control | dose: 400.0 mg/kg/injection, schedule: Q04DX003 (ip), vehicle: saline 104 % of control | dose: 500.0 mg/kg/injection, schedule: Q04DX003 (ip), vehicle: saline 96 % of control | dose: 1000.0 mg/kg/injection, schedule: Q04DX003 (ip), vehicle: saline 102 % of control | dose: 2000.0 mg/kg/injection, schedule: Q04DX003 (ip), vehicle: saline 91 % of control

Cc1c2oc3c(C)ccc(C(=O)NC4C(=O)NC(C(C)C)C(=O)N5CCCCC5C(=O)N(C)CC(=O)N(C)C(C(C)C)C(=O)OC4C)c3nc-2c(C(=O)NC2C(=O)NC(C(C)C)C(=O)N3CCCCC3C(=O)N(C)CC(=O)N(C)C(C(C)C)C(=O)OC2C)c(N)c1=O (stereo not drawn) (I: TV[Pip][Sar][NMeV] / II: TV[Pip][Sar][NMeV]; ester I:1-I:C, II:1-II:C; linker I:N-II:N via Actinocin(9to1); configuration not given here)
inactive: dose: 0.5 mg/kg/injection, schedule: Q01DX001 (ip), vehicle: saline 105 % of control | dose: 0.5 mg/kg/injection, schedule: Q01DX009 (ip), vehicle: water 123 % of control | dose: 1.0 mg/kg/injection, schedule: Q01DX001 (ip), vehicle: saline 102 % of control | dose: 1.0 mg/kg/injection, schedule: Q01DX009 (ip), vehicle: water 104 % of control | dose: 1.8 mg/kg/injection, schedule: Q01DX001 (ip), vehicle: saline 116 % of control | dose: 2.0 mg/kg/injection, schedule: Q01DX001 (ip), vehicle: saline 112 % of control | dose: 2.6 mg/kg/injection, schedule: Q01DX001 (ip), vehicle: saline 109 % of control | dose: 6.0 mg/kg/injection, schedule: Q01DX001 (ip), vehicle: saline 103 % of control

CNC(=O)Nc1cccc([N+](=O)[O-])c1OC
inactive: dose: 100.0 mg/kg/injection, schedule: Q04DX002 (ip), vehicle: Klucel (hydroxypropylcellulose) (HPC) 100 % of control | dose: 200.0 mg/kg/injection, schedule: Q04DX002 (ip), vehicle: Klucel (hydroxypropylcellulose) (HPC) 103 % of control | dose: 400.0 mg/kg/injection, schedule: Q04DX002 (ip), vehicle: Klucel (hydroxypropylcellulose) (HPC) 106 % of control

C=CCC(Cc1ccccc1)NCC1CC1 (stereo not drawn)
inactive: dose: 6.25 mg/kg/injection, schedule: Q04DX002 (ip), vehicle: saline with Tween-80 114 % of control | dose: 12.5 mg/kg/injection, schedule: Q04DX002 (ip), vehicle: saline with Tween-80 104 % of control | dose: 25.0 mg/kg/injection, schedule: Q04DX002 (ip), vehicle: saline with Tween-80 111 % of control

c1ccc2c(c1)ccc1[nH]c3ccccc3c12
inactive: dose: 100.0 mg/kg/injection, schedule: Q01DX001 (ip), vehicle: saline 120 % of control | dose: 200.0 mg/kg/injection, schedule: Q01DX001 (ip), vehicle: saline 96 % of control | dose: 400.0 mg/kg/injection, schedule: Q01DX001 (ip), vehicle: saline 93 % of control

O=C(CC(O)(C(F)(F)F)C(F)(F)F)c1c2ccccc2cc2ccccc12
inactive: dose: 100.0 mg/kg/injection, schedule: Q01DX009 (ip), vehicle: saline with Tween-80 98 % of control | dose: 200.0 mg/kg/injection, schedule: Q01DX009 (ip), vehicle: saline with Tween-80 109 % of control | dose: 400.0 mg/kg/injection, schedule: Q01DX009 (ip), vehicle: saline with Tween-80 98 % of control

COc1ccc(Cl)cc1[N+](=O)[O-]
inactive: [1] 95 % of control | [2] 95 % of control

Cc1nc(C)c(C(=O)O)cc1C(=O)O
inactive: [3] 104 % of control | [4] 101 % of control | [5] 100 % of control

CN=C(NO)c1ccccc1C
inactive: dose: 100.0 mg/kg/injection, schedule: Q01DX001 (ip), vehicle: carboxymethylcellulose (CMC) 100 % of control | dose: 200.0 mg/kg/injection, schedule: Q01DX001 (ip), vehicle: carboxymethylcellulose (CMC) 97 % of control
